Patent US4020111A, “Propynyloxy alkyl arene insecticides” (priority 1975, dated 1977)

How the values were obtained:
[1] = test system: Rutgers A strain house flies; assay: topical application test, percent kill after 24 hours, Rutgers A strain; assay type: in vivo, house fly (resistant Rutgers A strain)
Description: In Table IX, and in the tables following it, the doses of topically applied insecticides and of synergists unless otherwise noted are expressed as micrograms per fly (μg/fly).
The synergistic effect of O-(2-propynyl) oximes with mobam was determined from topical application tests on susceptible, female, IN/WHO strain house flies and from tests on resistant, female, Rutgers A strain house flies. The synergist and insecticide were dissolved in ACS Grade acetone in such quantities that a 1.0μ liter volume applied to the thorax of 3-to-5 day old CO2 -anesthetized female adult house flies contained the desired dosage. After being treated, the flies were confined, 10 to a plaster petri dish, with 3-5 dishes/treatment, and held for 24-hr. observation of mortality. Reconstituted skim milk on cotton dental wicks was provided during the holding period. The percent kills after 24 hours are shown in Table X for the IN/WHO strain and Table XI for the Rutgers A strain.
The synergistic effect of benzyl 2-propynyl ethers with mobam was determined from topical application tests on IN/WHO and Rutgers A strain houseflies, following the procedure of Example 5. The percent kills after 24 hours are shown in Table XIV for the IN/WHO strain and in Table XV for the Rutgers A strain.
The synergistic effect with Diazinon of compounds I-B, I-D, I-F, I-G, I-H and I-I, identified in Tables I and Ia, was determined from topical application tests on IN/WHO strain houseflies and on Rutgers A strain houseflies by the procedure of Example 5. The percent kills after 24 hours are shown in Table XXV for the IN/WHO strain and Table XXVI for the Rutgers A strain.
The synergistic effect with GS 13005 of compounds I-A, I-B, I-D, I-E, I-F, I-G and I-I was determined from topical application tests to IN/WHO strain, Rutgers A strain and polyvalent CH strain houseflies using the procedures of Example 5. The percent kills of the IN/WHO strain flies after 24 hours are shown in Table XXVIII; of the Rutgers A strain, in Table XXIX; and of the polyvalent CH strain, in Table XXX. The doses of insecticide alone to the CH strain files caused 10-40% mortality.
The synergistic effect with Diazinon and GS 13005 of various of the benzyl 2-propynyl ethers identified in Tables II and IIa was determined by topical application tests on IN/WHO strain, and Rutgers A strain and polyvalent, resistant, CH strain houseflies using the procedures of Example 5. The percent kills after 24 hours of IN/WHO strain flies are shown in Table XXXI; of Rutgers A strain flies, in Table XXXII; and of CH strain flies, in Table XXXIII. The doses of insecticide alone to the CH strain flies caused 10-40% mortality.
The synergistic effect on IN/WHO strain flies and Rutgers A strain flies of compound IV-C with GS 13005 and with Diazinon was determined by the topical application procedure of Example 5. The percent kills of IN/WHO strain flies after 24 hours are shown in Tables XXXVI and XXXVII; the percent kills of Rutgers A strain flies are shown in Tables XXXVIII and XXXIX.

[2] = test system: CH strain flies; assay: spray application of pyrethrum, average percent knockdown with time; assay type: in vivo, housefly (CH strain); details: pyrethrum 100 + synergist 100 mg/cc
Description: The average percent knockdown of CH strain flies, as a function of time, resulting from spray application of pyrethrum, alone and with synergists, are given in Table XXXXIII. Duplicate tests were performed using 50 CH strain houseflies per test. Test solutions of 100 mg and 200mg of pyrethrum per cc of acetone, 200 mg of synergist per cc of acetone, and a mixture of 100 mg of pyrethrum and 100 mg of synergist per cc of acetone were prepared. The fifty CH strain houseflies were put in a 40 liter spray chamber and 1 cc of the test solution was sprayed into the test chamber with a spray pistol. The synergists alone at 200 mg/cc caused no knockdown.

[3] = test system: mice; assay: synergism of acute toxicity of Dimetilan, GS 13005, Secobarbital and Methadone (intraperitoneal); assay type: in vivo, Swiss albino white male mice; details: for number of mice dead: 48 hours, of eight mice
In short: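 Male Swiss albino mice (5–6 weeks, 23–27 g), eight per dose; synergist in corn oil given i.p. 1 h before i.p. insecticide or drug (drugs in distilled water). Lethality recorded over at least 6 h; controls received corn oil plus agent alone.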

[4] = test system: houseflies; assay: percent kill with Diazinon, Table XXVII (strain not given); assay type: in vivo, housefly; details: Diazinon 5 + synergist 10 μg/fly, 1440 min
[5] = test system: Wilson strain house flies; assay type: in vivo, house fly (susceptible Wilson strain); details: for Contact Synergistic Ratio, Carbaryl (LC50 insecticide alone / LC50 with synergist): in vivo; for Contact Synergistic Ratio, Pyrolan (LC50 insecticide alone / LC50 with synergist): synergist to insecticide 5:1 by weight, 24 h
In short: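 Flies held at room temperature in glass jars coated with acetone-deposited insecticide film, alone or with synergist at 5:1 synergist:insecticide by weight; 10% sugar supplied.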

[6] = Dimetilan 8 mg/kg + synergist 240 mg/kg ip
[7] = Mobam 0.15 + synergist 0.75 μg/fly
[8] = Dimetilan 8 mg/kg + synergist 80 mg/kg ip
[9] = GS 13005 71 mg/kg + synergist 213 mg/kg
[10] = Methadone 32 mg/kg + synergist 215 mg/kg
[11] = Secobarbital 90 mg/kg + synergist 215 mg/kg
[12] = Mobam 0.30 + synergist 1.5 μg/fly

C#CCON=Cc1ccc(Cl)cc1Cl [I-G]
percent kill after 24 hours ([1]; Diazinon 3.0 + synergist 15 μg/fly): 100% | average percent knockdown ([2]; 5 min): 7% | average percent knockdown ([2]; 10 min): 12% | average percent knockdown ([2]; 15 min): 31% | average percent knockdown ([2]; 20 min): 36% | average percent knockdown ([2]; 25 min): 59% | average percent knockdown ([2]; 30 min): 66% | average percent knockdown ([2]; 40 min): 89% | average percent knockdown ([2]; 50 min): 93% | average percent knockdown ([2]; 60 min): 94% | number of mice dead [3, 6]: 0 | percent kill [4]: 90%

C#CCON=C(C)c1ccc(Cl)cc1 [I-D]
Contact Synergistic Ratio, Carbaryl (LC50 insecticide alone / LC50 with synergist) [5]: 177 | Contact Synergistic Ratio, Pyrolan (LC50 insecticide alone / LC50 with synergist) [5]: 25 | percent kill after 24 hours [1, 7]: 19% | percent kill after 24 hours ([1]; Mobam 0.60 + synergist 3.0 μg/fly): 100% | average percent knockdown ([2]; 5 min): 6% | average percent knockdown ([2]; 10 min): 15% | average percent knockdown ([2]; 15 min): 26% | average percent knockdown ([2]; 20 min): 39% | average percent knockdown ([2]; 25 min): 52% | average percent knockdown ([2]; 30 min): 60% | average percent knockdown ([2]; 40 min): 86% | average percent knockdown ([2]; 50 min): 87% | average percent knockdown ([2]; 60 min): 88% | number of mice dead [3, 8]: 1 | number of mice dead [3, 6]: 6 | percent kill [4]: 100%

C#CCOCc1c(Cl)ccc(Cl)c1Cl [II-E]
Contact Synergistic Ratio, Carbaryl (LC50 insecticide alone / LC50 with synergist) [5]: 120 | Contact Synergistic Ratio, Pyrolan (LC50 insecticide alone / LC50 with synergist) [5]: 20 | percent kill after 24 hours [1, 7]: 17% | percent kill after 24 hours ([1]; synergist alone 7.5 μg/fly): 0% | average percent knockdown ([2]; 5 min): 5% | average percent knockdown ([2]; 10 min): 9% | average percent knockdown ([2]; 15 min): 17% | average percent knockdown ([2]; 20 min): 44% | average percent knockdown ([2]; 25 min): 55% | average percent knockdown ([2]; 30 min): 59% | average percent knockdown ([2]; 40 min): 77% | average percent knockdown ([2]; 50 min): 93% | average percent knockdown ([2]; 60 min): 95% | number of mice dead [3, 6]: 0

C#CCOCc1ccc(Cl)c(Cl)c1Cl [II-D]
Contact Synergistic Ratio, Carbaryl (LC50 insecticide alone / LC50 with synergist) [5]: 200 | Contact Synergistic Ratio, Pyrolan (LC50 insecticide alone / LC50 with synergist) [5]: 30 | number of mice dead [3, 6]: 0 | mice lethality (number dead) [3, 9]: 3 | mice lethality (number dead) [3, 10]: 2 | mice lethality (number dead) [3, 11]: 1

C#CCOCc1c(Cl)cccc1[N+](=O)[O-] [II-K]
number of mice dead [3, 8]: 0 | number of mice dead [3, 6]: 6 | mice lethality (number dead) [3, 9]: 3 | mice lethality (number dead) [3, 10]: 2 | mice lethality (number dead) [3, 11]: 1

C#CCON=C(C)c1ccc2ccccc2c1 [I-F]
Contact Synergistic Ratio, Carbaryl (LC50 insecticide alone / LC50 with synergist) [5]: 200 | Contact Synergistic Ratio, Pyrolan (LC50 insecticide alone / LC50 with synergist) [5]: 50 | percent kill after 24 hours ([1]; Diazinon 3.0 + synergist 3.0 μg/fly): 95% | percent kill after 24 hours ([1]; GS 13005 1.0 + synergist 5.0 μg/fly): 95% | percent kill after 24 hours [1, 12]: 38% | number of mice dead [3, 8]: 0 | number of mice dead [3, 6]: 4

C#CCOCc1ccc(Cl)c(Cl)c1 [II-C]
Contact Synergistic Ratio, Carbaryl (LC50 insecticide alone / LC50 with synergist) [5]: 100 | Contact Synergistic Ratio, Pyrolan (LC50 insecticide alone / LC50 with synergist) [5]: 15 | percent kill after 24 hours [1, 12]: 20% | number of mice dead [3, 6]: 0
